Experimental data published in paper PMC11187126, “Structure and dynamics of the pyroglutamylated RF-amide peptide QRFP receptor GPR103” (Nature Communications, 2024).
Like-named read-outs stand apart in the source and are kept apart here. No end group written: not given here.

Biological target: T1, GPR103 C285^6.47A (Homo sapiens, UniProt Q96P65, C285A)
T1 construct: we used human full-length QRFPR-encoding plasmids; expressed in transfected cells; host or cells: HEK293 cells (HEK293A in the flow cytometry section), pCAGGS vector
T1 sequence (Q96P65 1-431 C285A): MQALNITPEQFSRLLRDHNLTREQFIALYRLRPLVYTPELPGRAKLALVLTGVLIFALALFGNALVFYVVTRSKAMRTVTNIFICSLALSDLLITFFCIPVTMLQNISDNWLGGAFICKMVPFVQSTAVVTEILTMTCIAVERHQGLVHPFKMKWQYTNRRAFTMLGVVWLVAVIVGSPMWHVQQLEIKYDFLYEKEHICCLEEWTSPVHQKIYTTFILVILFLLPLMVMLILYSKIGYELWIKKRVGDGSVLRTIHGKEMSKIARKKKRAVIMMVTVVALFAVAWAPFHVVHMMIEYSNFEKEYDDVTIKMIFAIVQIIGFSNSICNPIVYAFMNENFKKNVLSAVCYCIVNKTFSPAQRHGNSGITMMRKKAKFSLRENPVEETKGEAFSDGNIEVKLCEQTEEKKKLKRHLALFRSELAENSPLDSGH
Assay: TGFα shedding assay; Exp. level WT (1:20)
Type: cell-based
Description: For the TGFα shedding assay and the flow cytometry analysis, we used human full-length QRFPR-encoding plasmids. Specifically, GPR103 was N-terminally modified with an HA signal sequence followed by a FLAG epitope and then a flexible linker ([…]; the FLAG epitope is underlined) and inserted into the pCAGGS vector. Plasmid encoding GPR103 mutants were generated using Quickchange Site-Directed Mutagensis kit (Agilent).
The TGFα shedding assay was performed as described previously with minor modifications. Plasmid transfection was performed in a 6-well plate with a mixture of 500 ng (per well in a 6-well plate) AP-TGFα-encoding plasmid and 200 ng GPR103-encoding plasmid. After 1-day culture, the transfected cells were harvested by trypsinization, pelleted by centrifugation at 190 × g for 5 min, and washed once with 5 mM HEPES (pH 7.4)-containing Hank’s Balanced Salt Solution (HBSS). After centrifugation, the cells were resuspended in 8 mL of the HEPES-containing HBSS. The cell suspension was seeded in a 96-well culture plate (cell plate) at a volume of 90 μL (per well hereafter) and incubated in a 37 °C incubator with 5% CO2 for 30 min. […] After spinning the cell plates at 190 × g for 2 min, 80 μL of conditioned media was transferred to an empty 96-well plate (conditioned media (CM) plate). Then, 80 μL of AP reaction solution (10 mM p-nitrophenylphosphate (p-NPP), 120 mM Tris-HCl (pH 9.5), 40 mM NaCl, and 10 mM MgCl2) was dispensed into the cell plates and the CM plates. Absorbance at 405 nm of the plates was measured using a microplate reader (SpectraMax 340 PC384, Molecular Devices) before and after 1-h incubation at room temperature. Ligand-induced AP-TGFα release was calculated by subtracting spontaneous AP-TGFα release signal from ligand-induced AP-TGFα release signal. The AP-TGFα release signals were fitted to a four-parameter sigmoidal concentration–response curve, using the Prism 10 software (GraphPad Prism). For each replicate experiment, the pEC50 parameter (negative logarithmic values of EC50 values) of the individual GPR103 mutants were normalized to that of the wild-type GPR103 performed in parallel, and resulting ∆pEC50 values were used to denote ligand response activity of the mutants. […]
Exp. le vel: WT (1:5 0)Exp. le vel: WT (1:5 0)Exp. le vel: WT (1:5 0)Exp. le vel: WT (1:2 0)Exp. le vel: WT (1:2 0)Exp. le vel: WT (1:1 0) […]
L1 4N - t e r mA F2 5N - t e r mA I 2 6N - t e r mA Y 2 9N - t e r mA C 9 82 .5 7A T10 22 .6 1A Exp . l eve l: WT (1 :5)Exp . l evel : >WT (1 :1)Exp. le vel: WT (1:2 0)Exp. le vel: WT (1:2 0)Exp. le vel: WT (1:5 0)Exp . l eve l: WT (1 :1) […]
Exp. le vel: WT (1:1 0)Exp. le vel: WT (1:2 0) C 1 1 83 .2 5AExp. le vel: WT (1:5 0)Exp. le vel: WT (1:5 0)Exp. le vel: WT (1:2 0)Exp . l eve l: WT (1 :5) […]
Exp. le vel: WT (1:5 0)Exp. le vel: WT (1:1 0)Exp. le vel: WT (1:5 0) E203ECL2AExp . l evel : >WT (1 :1)Exp. le vel: WT (1:5 0)Exp. le vel: WT (1:5 0) […]
Exp . l eve l: WT (1 :1) F28Exp. le vel: WT (1:5 0) C 2 8 56 .4 7AExp. le vel: WT (1:2 0) WExp. le vel: WT (1:2 0) F28Exp. le vel: WT (1:5 0)Exp . l evel : >WT (1 :1) […]
Exp. le vel: WT (1:5 0)Exp. le vel: WT (1:5 0) C 3 2 77 .4 8AExp . l eve l: WT (1 :5)Exp . l evel : >WT (1 :1)Exp . l evel : >WT (1 :1) […]
Suppl eme nt ary Figure 1 | Mutational analysis of GPR103. […]
mutants. Data are presented as mean values ± SEM, normally n=3-5; dots), each performed in triplicate. b-d Cell-surface expression (b) and QRFP26-in-duced activation of GPR103 (c, d) were analyzed by the flow cytometry and the TGFα shedding assay, respectively. From the concentration–response curves (a), Emax (c) and ΔpEC50 (d) values relative to the wild type were calculated. Colors in the mutant bars indicate an expression level matching to that of titrated wild type. Statistical analyses were performed using the ordinary one-way ANOVA followed by Dunnett tests with the expression-matched […]

With TSGPLGNLAEELNGYSRKKGGFSFRF-NH2 [QRFP26] the Emax (Exp. #1) was 81.15 % WT, the Emax (Exp. #2) was 80.43 % WT and the Emax (Exp. #3) was 87.98 % WT. For the same substance, the Emax (mean, read-out: Emax) was 83.2%, the EC50 (n = 3) was 14.1 nM and the Emax (n = 3, read-out: Emax) was 86.7 ± 2%.
